Measurements: ChEMBL document CHEMBL1201862, “PubChem BioAssay data set” (2004)
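1) Cells in 96-well plates. 2) Compound, 48 h, 5 concentrations. 3) Linear interpolation between surrounding doses. 4) Unreached endpoint = highest concentration. GI50 = concentration required for 50% inhibition of growth.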 Active and inactive are the calls of the source. Cut-off read from the data, not from the text of the source: active = GI50 up to about 1.1 µM and inactive = higher.

Assays:
Assay in all cases: DTP human tumour cell line panel, 48 h
786-0 = test system: 786-0
A498 = test system: A498
A549 = test system: A549
ACHN = test system: ACHN
CAKI-1 = test system: CAKI-1
CCRF-CEM = test system: CCRF-CEM
COLO 205 = test system: COLO 205
DU-145 = test system: DU-145
EKVX = test system: EKVX
HCT-116 = test system: HCT-116
HCT-15 = test system: HCT-15
HL-60 = test system: HL-60
HOP-62 = test system: HOP-62
HOP-92 = test system: HOP-92
HT-29 = test system: HT-29
Hs-578T = test system: Hs-578T
IGROV-1 = test system: IGROV-1
K562 = test system: K562
KM12 = test system: KM12
LOX IMVI = test system: LOX IMVI
M14 = test system: M14
MCF7 = test system: MCF7
MDA-MB-435 = test system: MDA-MB-435
MDA-N = test system: MDA-N
MOLT-4 = test system: MOLT-4
Malme-3M = test system: Malme-3M
NCI-H226 = test system: NCI-H226
NCI-H23 = test system: NCI-H23
NCI-H522 = test system: NCI-H522
NCI/ADR-RES = test system: NCI/ADR-RES
OVCAR-3 = test system: OVCAR-3
OVCAR-4 = test system: OVCAR-4
OVCAR-5 = test system: OVCAR-5
OVCAR-8 = test system: OVCAR-8
RPMI-8226 = test system: RPMI-8226
RXF 393 = test system: RXF 393
SF-268 = test system: SF-268
SF-295 = test system: SF-295
SF-539 = test system: SF-539
SK-MEL-2 = test system: SK-MEL-2
SK-MEL-5 = test system: SK-MEL-5
SK-OV-3 = test system: SK-OV-3
SN12C = test system: SN12C
SNB-19 = test system: SNB-19
SNB-75 = test system: SNB-75
SW-620 = test system: SW-620
T47D = test system: T47D
TK-10 = test system: TK-10
UACC-257 = test system: UACC-257
UACC-62 = test system: UACC-62
UO-31 = test system: UO-31
MDA-MB-231 = test system: MDA-MB-231
NCI-H460 = test system: NCI-H460
PC-3 = test system: PC-3
SK-MEL-28 = test system: SK-MEL-28
SR = test system: SR
U-251 = test system: U-251

SMILES: C[n+]1cccc2ccc(OC(=O)c3ccccc3)cc21
- GI50 (786-0): > 100 µM (inactive)
- GI50 (A498): > 100 µM (inactive)
- GI50 (A549): > 100 µM (inactive)
- GI50 (ACHN): > 100 µM (inactive)
- GI50 (CAKI-1): > 100 µM (inactive)
- GI50 (CCRF-CEM): > 10 µM (inactive)
- GI50 (COLO 205): > 100 µM (inactive)
- GI50 (DU-145): > 100 µM (inactive)
- GI50 (EKVX): > 100 µM (inactive)
- GI50 (HCT-116): > 100 µM (inactive)
- GI50 (HCT-15): > 100 µM
- GI50 (HL-60): > 10 µM (inactive)
- GI50 (HOP-62): > 100 µM (inactive)
- GI50 (HOP-92): > 100 µM (inactive)
- GI50 (HT-29): > 100 µM (inactive)
- GI50 (Hs-578T): > 100 µM (inactive)
- GI50 (IGROV-1): > 100 µM (inactive)
- GI50 (K562): > 100 µM (inactive)
- GI50 (KM12): > 100 µM (inactive)
- GI50 (LOX IMVI): > 100 µM (inactive)
- GI50 (M14): > 100 µM (inactive)
- GI50 (MCF7): > 100 µM (inactive)
- GI50 (MDA-MB-435): > 100 µM (inactive)
- GI50 (MDA-N): > 100 µM (inactive)
- GI50 (MOLT-4): > 100 µM (inactive)
- GI50 (Malme-3M): > 100 µM (inactive)
- GI50 (NCI-H226): > 100 µM (inactive)
- GI50 (NCI-H23): > 100 µM (inactive)
- GI50 (NCI-H522): > 100 µM (inactive)
- GI50 (NCI/ADR-RES): > 100 µM (inactive)
- GI50 (OVCAR-3): > 100 µM (inactive)
- GI50 (OVCAR-4): > 100 µM (inactive)
- GI50 (OVCAR-5): > 100 µM (inactive)
- GI50 (OVCAR-8): > 100 µM (inactive)
- GI50 (RPMI-8226): > 100 µM (inactive)
- GI50 (RXF 393): > 100 µM (inactive)
- GI50 (SF-268): > 100 µM (inactive)
- GI50 (SF-295): > 100 µM (inactive)
- GI50 (SF-539): > 100 µM (inactive)
- GI50 (SK-MEL-2): > 100 µM (inactive)
- GI50 (SK-MEL-5): > 100 µM (inactive)
- GI50 (SK-OV-3): > 100 µM (inactive)
- GI50 (SN12C): > 100 µM (inactive)
- GI50 (SNB-19): > 100 µM (inactive)
- GI50 (SNB-75): > 100 µM (inactive)
- GI50 (SW-620): > 100 µM (inactive)
- GI50 (T47D): > 100 µM (inactive)
- GI50 (TK-10): > 100 µM (inactive)
- GI50 (UACC-257): > 100 µM (inactive)
- GI50 (UACC-62): > 100 µM (inactive)
- GI50 (UO-31): > 100 µM (inactive)

SMILES: CC(Nc1ncc2c(n1)-c1ccccc1OC2)C(=O)O (stereo not given)
- GI50 (786-0): > 100 µM (inactive)
- GI50 (A549): > 100 µM (inactive)
- GI50 (ACHN): > 100 µM (inactive)
- GI50 (CAKI-1): 30.8 µM (inactive)
- GI50 (CCRF-CEM): > 100 µM (inactive)
- GI50 (COLO 205): 35.6 µM (inactive)
- GI50 (DU-145): 30.3 µM (inactive)
- GI50 (EKVX): 44.1 µM (inactive)
- GI50 (HCT-116): > 100 µM (inactive)
- GI50 (HCT-15): 85.9 µM
- GI50 (HL-60): 6.89 µM (inactive)
- GI50 (HOP-62): 51.6 µM (inactive)
- GI50 (HOP-92): 35.9 µM (inactive)
- GI50 (HT-29): 39.5 µM (inactive)
- GI50 (Hs-578T): 82.4 µM (inactive)
- GI50 (IGROV-1): 25.2 µM (inactive)
- GI50 (K562): 99.8 µM (inactive)
- GI50 (KM12): > 100 µM (inactive)
- GI50 (LOX IMVI): > 100 µM (inactive)
- GI50 (M14): > 100 µM (inactive)
- GI50 (MCF7): 42.9 µM (inactive)
- GI50 (MDA-MB-231): 92.7 µM (inactive)
- GI50 (MDA-MB-435): > 100 µM (inactive)
- GI50 (MDA-N): > 100 µM (inactive)
- GI50 (MOLT-4): > 100 µM (inactive)
- GI50 (Malme-3M): > 100 µM (inactive)
- GI50 (NCI-H226): 61.7 µM (inactive)
- GI50 (NCI-H23): 86.5 µM (inactive)
- GI50 (NCI-H460): > 100 µM (inactive)
- GI50 (NCI/ADR-RES): > 100 µM (inactive)
- GI50 (OVCAR-3): 27.9 µM (inactive)
- GI50 (OVCAR-4): > 100 µM (inactive)
- GI50 (OVCAR-5): > 100 µM (inactive)
- GI50 (OVCAR-8): > 100 µM (inactive)
- GI50 (PC-3): > 100 µM (inactive)
- GI50 (RPMI-8226): 34.2 µM (inactive)
- GI50 (RXF 393): > 100 µM (inactive)
- GI50 (SF-268): > 100 µM (inactive)
- GI50 (SF-295): > 100 µM (inactive)
- GI50 (SF-539): > 100 µM (inactive)
- GI50 (SK-MEL-28): > 100 µM (inactive)
- GI50 (SK-MEL-2): > 100 µM (inactive)
- GI50 (SK-MEL-5): > 100 µM (inactive)
- GI50 (SK-OV-3): > 100 µM (inactive)
- GI50 (SN12C): 59.7 µM (inactive)
- GI50 (SNB-19): > 100 µM (inactive)
- GI50 (SNB-75): 40.7 µM (inactive)
- GI50 (SR): 48.5 µM (inactive)
- GI50 (SW-620): > 100 µM (inactive)
- GI50 (TK-10): > 100 µM (inactive)
- GI50 (U-251): > 100 µM (inactive)
- GI50 (UACC-257): 60.3 µM (inactive)
- GI50 (UACC-62): > 100 µM (inactive)
- GI50 (UO-31): 41.2 µM (inactive)
